Data from patent US20220402862A1 (Intellia Therapeutics, Inc., priority 2019, published 2022).
Where “and” joins values, the source holds several entries; their conditions need not be identical. Equal values may be shown once.

Tests used:
[1] = pKa measurement of unformulated amine lipid (fluorescence, method of Jayaraman et al.); assay type: physicochemical; details: 100 μM in 0.1 M phosphate buffer, pH 2.0-12.0
Protocol: The pKa of each amine lipid was determined according to the method in Jayaraman, et al. (Angewandte Chemie, 2012) with the following adaptations. […] Lipid was diluted to 100 μM in 0.1 M phosphate buffer (Boston Bioproducts) where the pH ranged from 2.0-12.0. Fluorescence intensity was measured using excitation and emission wavelengths of 321 nm and 448 nm.

[2] = system: Transthyretin (TTR); assay: Serum TTR ELISA in mice after LNP dosing; assay type: in vivo, CD-1 female mice; details: guide G282 experiments; for Serum TTR % TSS: mouse serum TTR relative to TSS control; for Serum TTR: mouse serum, ELISA
Outline: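 Female CD-1 mice, 6–10 weeks, given LNPs by tail-vein injection (~10 mL/kg), 0.1 mg/kg unless noted; serum taken at day 6 or 7 by cardiac puncture. Total mouse TTR by ELISA on sera diluted 10,000-fold (0.1 mg/kg) or 10,000- and 2,500-fold (0.3 mg/kg).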

[3] = Dynamic light scattering of LNPs: Z-average diameter, number average diameter, PDI; assay type: physicochemical; details: LNP, sg:mRNA 1:1, N/P about 6, 50/9/38/3; Table 2, Experiments 2-20
Outline: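 LNP samples were diluted in PBS and measured by DLS to give intensity-based Z-average diameter, number average diameter and polydispersity index. PDI describes size spread around the mean, with zero meaning a uniform population.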

[4] = RNA encapsulation efficiency of LNPs (Ribogreen fluorescence assay); assay type: physicochemical; details: LNP, sg:mRNA 1:1, N/P about 6, amine lipid/DSPC/cholesterol/PEG-2k-DMG 50/9/38/3; Table 2, Experiments 2-20
Outline: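 LNPs were diluted in 1× TE with 0.2% Triton X-100 (total RNA) or without it (free RNA), stained with RiboGreen for ~10 min at room temperature in the dark, and read at Ex 488/Em 525 nm against standard curves of the starting RNA. Encapsulation efficiency = (Total − Free)/Total.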

Row | SMILES | pKa [1] | Serum TTR % TSS [2] [%] | Serum TTR [2] [µg/mL] | Number mean (nm) [3] | PDI [3] | Z-avg (nm) [3] | Encapsulation (%) [4]
1 | CCCCC/C=C\C/C=C\CCCCCCCC(=O)OCC(COC(=O)CCC(OCCCCCCCC)OCCCCCCCC)COC(=O)NC1CCCN(C)C1 (stereo not shown) [Compound 42, 3-((4,4-bis(octyloxy)butanoyl)oxy)-2-((((1-methylpiperidin-3-yl)carbamoyl)oxy)methyl)propyl (9Z,12Z)-octadeca-9,12-dienoate] | 6.9 | 81 | 902 | 58.66 nm | 0.027 | 74.03 nm | 99%
2 | CCCCC/C=C\C/C=C\CCCCCCCC(=O)OCC(COC(=O)CCC(OCCCCCCCC)OCCCCCCCC)COC(=O)NC(C)CN(CC)CC (stereo not shown) [Compound 44, 3-((4,4-bis(octyloxy)butanoyl)oxy)-2-((((1-(diethylamino)propan-2-yl)carbamoyl)oxy)methyl)propyl (9Z,12Z)-octadeca-9,12-dienoate] | 6.1 | 82 | 910 | 64.78 nm | 0.025 | 81.19 nm | 91%
3 | CCCCC/C=C\C/C=C\CCCCCCCC(=O)OCC(COC(=O)CCC(OCCCCCCCC)OCCCCCCCC)COC(=O)NC(C)CN(C)C (stereo not shown) [Compound 45, 3-((4,4-bis(octyloxy)butanoyl)oxy)-2-((((1-(dimethylamino)propan-2-yl)carbamoyl)oxy)methyl)propyl (9Z,12Z)-octadeca-9,12-dienoate] | 7.3 | 98 | 1096 | 69.23 nm | 0.007 | 82.93 nm | 98%
4 | CCCCC/C=C\C/C=C\CCCCCCCC(=O)OCC(COC(=O)CCC(OCCCCCCCC)OCCCCCCCC)COC(=O)N1CCN(C)CC1 (stereo not shown) [Compound 47, 3-((4,4-bis(octyloxy)butanoyl)oxy)-2-((((9Z,12Z)-octadeca-9,12-dienoyl)oxy)methyl)propyl 4-methylpiperazine-1-carboxylate] | 5.9 | 96 | 1075 | 40.95 nm | 0.086 | 58.93 nm | 97%
5 | CCCCC/C=C\C/C=C\CCCCCCCC(=O)OCC(COC(=O)CCC(OCCCCCCCC)OCCCCCCCC)COC(=O)N1CCN(CC)CC1 (stereo not shown) [Compound 48, 3-((4,4-bis(octyloxy)butanoyl)oxy)-2-((((9Z,12Z)-octadeca-9,12-dienoyl)oxy)methyl)propyl 4-ethylpiperazine-1-carboxylate] | 5.3 | 82 | 915 | 45.32 nm | 0.085 | 64.68 nm | 97%
6 | CCCCC/C=C\C/C=C\CCCCCCCC(=O)OCC(COC(=O)CCC(OCCCCCCCC)OCCCCCCCC)COC(=O)OCC1CCN(CC)C1 (stereo not shown) [Compound 51, 3-((4,4-bis(octyloxy)butanoyl)oxy)-2-(((((1-ethylpyrrolidin-3-yl)methoxy)carbonyl)oxy)methyl)propyl (9Z,12Z)-octadeca-9,12-dienoate] | 7.3 | 76 | 843 | 72.23 nm | 0.018 | 86.15 nm | 98%
7 | CCCCC/C=C\C/C=C\CCCCCCCC(=O)OCC(COC(=O)CCC(OCCCCCCCC)OCCCCCCCC)COC(=O)OCC1(C)CCCN(CC)C1 (stereo not shown) [Compound 52, 3-((4,4-bis(octyloxy)butanoyl)oxy)-2-(((((1-ethyl-3-methylpiperidin-3-yl)methoxy)carbonyl)oxy)methyl)propyl (9Z,12Z)-octadeca-9,12-dienoate] | 7.8 | 84 | 935 | 69.4 nm | 0.032 | 86.72 nm | 99%
8 | CCCCCC/C=C\COC(=O)CCCCCC(=O)OCC(COC(=O)CCC(OCCCCCCCC)OCCCCCCCC)COC(=O)OCCCN(CC)CC (stereo not shown) [Compound 55, (Z)-1-(3-((4,4-bis(octyloxy)butanoyl)oxy)-2-((((3-(diethylamino)propoxy)carbonyl)oxy)methyl)propyl) 7-(non-2-en-1-yl) heptanedioate] | 6.84 | 51 | 442 | 79.46 nm and 90.16 nm | 0.048 and 0.039 | 101 nm and 113.2 nm | 96% and 92%
9 | CCCCCC/C=C\COC(=O)CCCC(=O)OCC(COC(=O)CCC(OCCCCCCCC)OCCCCCCCC)COC(=O)OCCCN(CC)CC (stereo not shown) [Compound 56, (Z)-3-((4,4-bis(octyloxy)butanoyl)oxy)-2-((((3-(diethylamino)propoxy)carbonyl)oxy)methyl)propyl non-2-en-1-yl glutarate] | 6.85 | 66 | 576 | 81.44 nm | 0.067 | 105.2 nm | 96%
10 | CCCCCCCCCCOC(=O)CCCCCCCC(=O)OCC(COC(=O)CCC(OCCCCCCCC)OCCCCCCCC)COC(=O)OCC1CCCN(C)C1 (stereo not shown) [Compound 71, 1-(3-((4,4-bis(octyloxy)butanoyl)oxy)-2-(((((1-methylpiperidin-3-yl)methoxy)carbonyl)oxy)methyl)propyl) 9-decyl nonanedioate] | 6.44 | 50 | 462 | 76.95 nm | 0.035 | 95.57 nm | 99%
11 | CCCCCCCCCCOC(=O)CCCCCCCC(=O)OCC(COC(=O)CCC(OCCCCCCCC)OCCCCCCCC)COC(=O)OCC1CCCN(CC)C1 (stereo not shown) [Compound 72, 1-(3-((4,4-bis(octyloxy)butanoyl)oxy)-2-(((((1-ethylpiperidin-3-yl)methoxy)carbonyl)oxy)methyl)propyl) 9-decyl nonanedioate] | 6.07 | 52 | 479 | 75.22 nm | 0.002 | 91.65 nm | 99%
12 | CCCCCCCCCCOC(=O)CCCCCCCC(=O)OCC(COC(=O)CCC(OCCCCCCCC)OCCCCCCCC)COC(=O)NCCN(CC)CC (stereo not shown) [Compound 73, 1-(3-((4,4-bis(octyloxy)butanoyl)oxy)-2-((((2-(diethylamino)ethyl)carbamoyl)oxy)methyl)propyl) 9-decyl nonanedioate] | 6.64 | 60 | 550 | 94.5 nm | 0.008 | 110.6 nm | 97%
13 | CCCCCCCCCCOC(=O)CCCCCCCC(=O)OCC(COC(=O)CCC(OCCCCCCCC)OCCCCCCCC)COC(=O)OCCC1CCCN1C (stereo not shown) [Compound 74, 1-(3-((4,4-bis(octyloxy)butanoyl)oxy)-2-((((2-(1-methylpyrrolidin-2-yl)ethoxy)carbonyl)oxy)methyl)propyl) 9-decyl nonanedioate] | 6.39 | 44 | 406 | 87.14 nm | 0.021 | 105.7 nm | 99%
